Laboratory results from ChEMBL document CHEMBL2010672, “Pyridyl aminothiazoles as potent Chk1 inhibitors: optimization of cellular activity” (Bioorg Med Chem Lett, 2012).
pEC50, pIC50: −log10 of the molar value.

Columns and labels:
[1] = molecular target: Cyclin-dependent kinase 7 (Homo sapiens, UniProt P50613); experiment: Inhibition of CDK7
[2] = system: NCI-H1299; experiment: Inhibition of DNA damage-induced cell cycle arrest in human H1299 cells assessed as progression into mitosis measuring mitosis specific-phosphorylation of nucleolin after 8 hrs by checkpoint escape assay; assay type: functional, cell-based; details: NCI-H1299, 8 h
[3] = molecular target: T1, Serine/threonine-protein kinase Chk1 (Homo sapiens, UniProt O14757); experiment: Inhibition of CHK1 by time resolved fluorescence assay
T1 sequence (O14757 whole entry): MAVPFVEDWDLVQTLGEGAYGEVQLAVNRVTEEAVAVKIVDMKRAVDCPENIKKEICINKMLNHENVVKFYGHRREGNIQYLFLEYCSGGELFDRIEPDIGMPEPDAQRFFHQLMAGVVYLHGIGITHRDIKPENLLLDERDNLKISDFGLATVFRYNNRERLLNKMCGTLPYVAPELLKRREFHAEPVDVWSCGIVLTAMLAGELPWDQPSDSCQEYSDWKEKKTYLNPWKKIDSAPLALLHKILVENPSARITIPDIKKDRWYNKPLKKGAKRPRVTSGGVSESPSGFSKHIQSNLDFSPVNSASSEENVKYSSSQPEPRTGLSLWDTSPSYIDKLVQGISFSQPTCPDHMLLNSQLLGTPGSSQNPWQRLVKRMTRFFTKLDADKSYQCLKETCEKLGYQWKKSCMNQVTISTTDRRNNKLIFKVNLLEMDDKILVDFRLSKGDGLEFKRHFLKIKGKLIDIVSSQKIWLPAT

Chain of Cyclin-dependent kinase 7 (P50613 whole entry): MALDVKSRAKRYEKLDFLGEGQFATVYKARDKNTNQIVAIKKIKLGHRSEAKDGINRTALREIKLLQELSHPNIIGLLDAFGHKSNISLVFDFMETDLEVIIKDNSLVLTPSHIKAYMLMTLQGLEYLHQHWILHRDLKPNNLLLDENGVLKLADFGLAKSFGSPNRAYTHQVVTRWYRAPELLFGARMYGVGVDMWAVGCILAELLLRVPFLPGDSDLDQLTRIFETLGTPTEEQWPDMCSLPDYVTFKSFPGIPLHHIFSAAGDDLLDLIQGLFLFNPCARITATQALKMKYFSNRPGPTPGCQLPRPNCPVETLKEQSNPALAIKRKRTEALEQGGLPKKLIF

Row | Structure (SMILES) | pIC50 [1] | pIC50 [3] | pEC50 [2]
1 | NCCNC(=O)c1cncc(-c2cnc(Nc3cc(N4CCOCC4)ccn3)s2)c1 | 6.47 | – | 6.34
2 | O=C(CN1CCN(c2ccnc(Nc3ncc(-c4cccnc4)s3)c2)CC1)N1CCOCC1 | 5.75 | – | < 4.30
3 | c1cncc(-c2cncc(-c3cnc(Nc4cc(N5CCOCC5)ccn4)s3)c2)c1 | < 5.00 | – | < 5.00
4 | c1ncc(-c2cncc(-c3cnc(Nc4cc(N5CCOCC5)ccn4)s3)c2)cn1 | < 5.00 | – | < 5.00
5 | c1cc(N2CCNCC2)cc(Nc2ncc(-c3cncc(-c4cn[nH]c4)c3)s2)n1 | 6.59 | – | 5.26
6 | CS(=O)(=O)N1CCN(c2ccnc(Nc3ncc(-c4cncc(C(=O)NCCN)c4)s3)c2)CC1 | 6.77 | – | 6.30
7 | CC(=O)N1CCN(c2ccnc(Nc3ncc(-c4cncc(C(=O)NCCN)c4)s3)c2)CC1 | 6.68 | – | 5.92
8 | c1cn(-c2cncc(-c3cnc(Nc4cc(N5CCOCC5)ccn4)s3)c2)nn1 | < 5.00 | 8.05 | 5.86
9 | NC(=O)c1cncc(-c2cnc(Nc3cc(N4CCOCC4)ccn3)s2)c1 | < 5.43 | 8.00 | < 5.00
10 | Cc1ccc(NC(=O)c2cncc(-c3cnc(Nc4cc(N5CCOCC5)ccn4)s3)c2)s1 | < 5.00 | 7.92 | 6.04
11 | CNC(=O)c1cncc(-c2cnc(Nc3cc(N4CCOCC4)ccn3)s2)c1 | < 5.00 | 8.15 | 6.52
12 | NCCNC(=O)c1cncc(-c2cnc(Nc3cc(Cl)ccn3)s2)c1 | 6.03 | 7.80 | 6.03
13 | NCCNC(=O)c1cncc(-c2cnc(Nc3ncccc3Cl)s2)c1 | 6.02 | 9.52 | 6.48
14 | Cc1cccnc1Nc1ncc(-c2cncc(C(=O)NCCN)c2)s1 | 6.04 | 9.40 | 6.37
15 | NCCNC(=O)c1cccc(-c2cnc(Nc3cc(N4CCC(F)(F)CC4)ccn3)s2)c1 | 6.80 | 8.10 | < 5.00
16 | NCCCCc1cncc(-c2cnc(Nc3cc(N4CCOCC4)ccn3)s2)c1 | < 5.00 | 7.92 | –
17 | NCCNC(=O)c1cncc(-c2cnc(Nc3ccccc3Cl)s2)c1 | < 5.00 | 7.48 | < 5.00
18 | O=C(NCCO)c1cncc(-c2cnc(Nc3cc(N4CCOCC4)ccn3)s2)c1 | < 5.00 | 7.82 | < 5.00
19 | O=C(NCC(F)(F)F)c1cncc(-c2cnc(Nc3cc(N4CCOCC4)ccn3)s2)c1 | 6.15 | 8.80 | 6.70
20 | CS(=O)(=O)N1CCN(c2ccnc(Nc3ncc(-c4cncc(C(=O)NCC(F)(F)F)c4)s3)c2)CC1 | 5.68 | 8.77 | 6.97
21 | NCCNC(=O)c1cncc(-c2cnc(Nc3cc(N4CCC(F)CC4)ccn3)s2)c1 | 6.46 | 10.15 | 6.32

Second part, led by results:

Row | pIC50 [1] | pIC50 [3] | Structure (SMILES) | pEC50 [2]
22 | < 4.70 | – | Cc1ccc(-c2cnc(Nc3cc(N4CCNCC4)ccn3)s2)cn1 | 5.86
23 | 6.06 | 7.57 | Cc1ccc(-c2cnc(Nc3cccc(NCCCN)n3)s2)cn1 | < 4.78
24 | 7.59 | 7.48 | c1ccc(-c2cnc(Nc3cccc(N4CCNCC4)n3)s2)cc1 | < 4.78
25 | 6.00 | 7.42 | Cc1ccc(-c2cnc(Nc3cccc(N4CCNCC4)n3)s2)cn1 | < 4.78
26 | 4.96 | 7.54 | c1ncc(-c2cnc(Nc3cc(N4CCNCC4)ccn3)s2)cn1 | 5.82
27 | 6.39 | 6.80 | c1cc(Nc2ncc(-c3cncnc3)s2)nc(N2CCNCC2)c1 | –
28 | 6.32 | 7.68 | Brc1cncc(-c2cnc(Nc3cc(N4CCNCC4)ccn3)s2)c1 | < 4.30
29 | < 5.70 | 8.22 | Cn1cc(-c2cncc(-c3cnc(Nc4cc(N5CCNCC5)ccn4)s3)c2)cn1 | 5.88
30 | < 5.00 | 8.30 | c1cncc(-c2cncc(-c3cnc(Nc4cc(N5CCNCC5)ccn4)s3)c2)c1 | 6.24
31 | < 5.00 | 7.80 | O=C(O)c1cncc(-c2cnc(Nc3cc(N4CCNCC4)ccn3)s2)c1 | < 5.00
